Biological target: USP7 (Homo sapiens, UniProt Q93009)
Test: USP7 inhibitory potency (Table 1)
Type: biochemical

Sequence of USP7 (Q93009 whole entry): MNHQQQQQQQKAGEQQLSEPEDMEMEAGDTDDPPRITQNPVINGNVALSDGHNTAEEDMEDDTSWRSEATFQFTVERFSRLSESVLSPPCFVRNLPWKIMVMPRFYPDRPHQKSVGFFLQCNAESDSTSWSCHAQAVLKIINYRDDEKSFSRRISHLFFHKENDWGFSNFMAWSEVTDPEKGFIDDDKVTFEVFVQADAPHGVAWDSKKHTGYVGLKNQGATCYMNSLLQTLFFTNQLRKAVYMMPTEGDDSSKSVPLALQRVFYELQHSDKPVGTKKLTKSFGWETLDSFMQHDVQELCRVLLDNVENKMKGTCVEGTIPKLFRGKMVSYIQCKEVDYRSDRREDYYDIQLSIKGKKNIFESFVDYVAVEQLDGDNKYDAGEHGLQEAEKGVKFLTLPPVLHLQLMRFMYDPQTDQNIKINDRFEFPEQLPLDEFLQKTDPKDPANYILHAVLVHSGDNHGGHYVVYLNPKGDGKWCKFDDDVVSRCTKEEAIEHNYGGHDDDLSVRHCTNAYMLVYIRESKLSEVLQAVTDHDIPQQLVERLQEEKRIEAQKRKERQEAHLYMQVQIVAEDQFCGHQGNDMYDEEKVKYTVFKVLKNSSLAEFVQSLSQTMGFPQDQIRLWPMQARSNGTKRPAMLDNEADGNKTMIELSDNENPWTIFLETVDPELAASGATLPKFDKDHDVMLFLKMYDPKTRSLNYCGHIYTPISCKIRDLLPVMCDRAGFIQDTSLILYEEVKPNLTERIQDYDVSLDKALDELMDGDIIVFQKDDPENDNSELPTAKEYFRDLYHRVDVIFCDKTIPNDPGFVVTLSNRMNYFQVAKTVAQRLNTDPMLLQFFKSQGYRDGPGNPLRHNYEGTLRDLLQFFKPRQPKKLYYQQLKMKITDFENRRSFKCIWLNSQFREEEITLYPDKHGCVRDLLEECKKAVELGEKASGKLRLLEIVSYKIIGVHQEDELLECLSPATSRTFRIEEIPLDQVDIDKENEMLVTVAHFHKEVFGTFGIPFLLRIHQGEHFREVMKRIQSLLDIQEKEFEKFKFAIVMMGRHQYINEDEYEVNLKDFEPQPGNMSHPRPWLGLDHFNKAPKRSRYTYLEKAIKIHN

Q: How did the IC50 turn out when `C[C@@H](c1cc2nccc(-c3cc(Cl)cc4c3O[C@@H](C(=O)N3CCNCC3)C4)c2s1)N1C(=O)CCC1=O` [1-((S)-1-(7-((R)-5-chloro-2-(piperazine-1-carbonyl)-2,3-dihydrobenzofuran-7-yl)thieno[3,2-b]pyridin-2-yl)ethyl)pyrrolidine-2,5-dione] was run?
A: < 1000 nM

Q: How did the IC50 turn out when `CC(C)(O)C1Cc2nccc(-c3cc(Cl)cc4c3O[C@@H](c3onc5c3CNCC5)C4)c2C1` (stereo partly drawn) [2-(4-((R)-5-chloro-2-(4,5,6,7-tetrahydroisoxazolo[4,3-c]pyridin-3-yl)-2,3-dihydrobenzofuran-7-yl)-6,7-dihydro-5H-cyclopenta[b]pyridin-6-yl)propan-2-ol] was run?
A: 1000 to 10000 nM

Q: `CCC(O)(C(=O)N(C)C)c1cc2nccc(-c3cc(Cl)cc4c3O[C@@H](C(=O)N3CCNCC3)C4)c2s1` (stereo partly drawn) [2-(7-((R)-5-chloro-2-(piperazine-1-carbonyl)-2,3-dihydrobenzofuran-7-yl)thieno[3,2-b]pyridin-2-yl)-2-hydroxy-N,N-dimethylbutanamide] was tested. Which IC50 did it give?
A: < 1000 nM

Q: `CCC(O)(CC)C1Cc2nccc(-c3cc(Cl)cc4c3O[C@@H](c3onc5c3CNCC5)C4)c2C1` (stereo partly drawn) [3-(4-((R)-5-chloro-2-(4,5,6,7-tetrahydroisoxazolo[4,3-c]pyridin-3-yl)-2,3-dihydrobenzofuran-7-yl)-6,7-dihydro-5H-cyclopenta[b]pyridin-6-yl)pentan-3-ol] was tested. Which IC50 did it give?
A: 1000 to 10000 nM

Q: For `Clc1cc2c(c(-c3ccnc4[nH]ccc34)c1)OC(c1n[nH]c3c1CNCC3)C2` (stereo not shown) [3-(5-chloro-7-(1H-pyrrolo[2,3-b]pyridin-4-yl)-2,3-dihydrobenzofuran-2-yl)-4,5,6,7-tetrahydro-1H-pyrazolo[4,3-c]pyridine], which IC50 is on record?
A: 1000 to 10000 nM

Q: Which IC50 does the source give for `Clc1cc2c(c(-c3ccnc4[nH]ccc34)c1)OC(c1onc3c1CCNC3)C2` (stereo not shown) [3-(5-chloro-7-(1H-pyrrolo[2,3-b]pyridin-4-yl)-2,3-dihydrobenzofuran-2-yl)-4,5,6,7-tetrahydroisoxazolo[3,4-c]pyridine] here?
A: 1000 to 10000 nM

Q: Which IC50 does the source give for `Clc1cc2c(c(-c3ccnc4[nH]ccc34)c1)OC(c1onc3c1CNCC3)C2` (stereo not shown) [3-(5-chloro-7-(1H-pyrrolo[2,3-b]pyridin-4-yl)-2,3-dihydrobenzofuran-2-yl)-4,5,6,7-tetrahydroisoxazolo[4,3-c]pyridine] here?
A: < 1000 nM

Q: For `Clc1cc2c(c(-c3ccnc4ccnn34)c1)OC(c1onc3c1CNCC3)C2` (stereo not shown) [3-(5-chloro-7-(pyrazolo[1,5-a]pyrimidin-7-yl)-2,3-dihydrobenzofuran-2-yl)-4,5,6,7-tetrahydroisoxazolo[4,3-c]pyridine], which IC50 is on record?
A: 1000 to 10000 nM

Q: With `Clc1cc2c(c(-c3ccncc3)c1)OC(c1onc3c1CNCC3)C2` (stereo not shown) [3-(5-chloro-7-(pyridin-4-yl)-2,3-dihydrobenzofuran-2-yl)-4,5,6,7-tetrahydroisoxazolo[4,3-c]pyridine] as the compound, how does the IC50 read?
A: 1000 to 10000 nM

Q: How did the IC50 turn out when `N#CCC(O)c1cc2nccc(-c3cc(Cl)cc4c3O[C@@H](C(=O)N3CCNCC3)C4)c2s1` (stereo partly drawn) [3-(7-((R)-5-chloro-2-(piperazine-1-carbonyl)-2,3-dihydrobenzofuran-7-yl)thieno[3,2-b]pyridin-2-yl)-3-hydroxypropanenitrile] was run?
A: < 1000 nM

Q: For `CCC(OC)c1cc2nccc(-c3cc(Cl)cc4c3O[C@@H](c3onc5c3CNCC5)C4)c2s1` (stereo partly drawn) [3-((2R)-5-chloro-7-(2-(1-methoxypropyl)thieno[3,2-b]pyridin-7-yl)-2,3-dihydrobenzofuran-2-yl)-4,5,6,7-tetrahydroisoxazolo[4,3-c]pyridine], which IC50 is on record?
A: < 1000 nM

Q: For `O=C(C1Cc2cc(Cl)cc(-c3ccnc(Cn4cnc5ccccc5c4=O)c3)c2O1)N1CCNCC1` (stereo not shown) [3-((4-(5-chloro-2-(piperazine-1-carbonyl)-2,3-dihydrobenzofuran-7-yl)pyridin-2-yl)methyl)quinazolin-4(3H)-one], which IC50 is on record?
A: 10000 to 30000 nM

Q: Which IC50 does the source give for `OCC(O)(CCl)c1cc2nccc(-c3cc(Cl)cc4c3O[C@@H](c3onc5c3CNCC5)C4)c2s1` (stereo partly drawn) [3-chloro-2-(7-((R)-5-chloro-2-(4,5,6,7-tetrahydroisoxazolo[4,3-c]pyridin-3-yl)-2,3-dihydrobenzofuran-7-yl)thieno[3,2-b]pyridin-2-yl)propane-1,2-diol] here?
A: < 1000 nM

From patent US20210317134A1, “UBIQUITIN-SPECIFIC-PROCESSING PROTEASE 7 (USP7) MODULATORS AND USES THEREOF” (RAPT THERAPEUTICS, INC., priority 2019, published 2021)
